Source: patent publication US11504371B2, “Quinazolines compound, preparation method therefor and application thereof” (Beijing Normal University, priority 2017, dated 2022)
“Also recorded” adds a separate entry of the source. Where two headings read alike, the source gives them in different places.

Columns and labels:
[1] = system: human neuroblastoma cell line (SH-SY5Y); assay: MTT assay, tumor cell proliferation inhibition, SH-SY5Y; assay type: cell-based; details: SH-SY5Y, 72 h, read-out: Tumor inhibition rate (IC50)
Method: (§1) Cell lines to be tested: human hepatoma cell line (HepG2), human lung cancer cell line (A549), human prostate cancer cell line (DU145), human breast cancer cell line (MCF-7), human neuroblastoma cell line (SH-SY5Y), human gastric mucosal cell line (Ges-1) and human embryonic lung fibroblast cell line (CCC-HPF-1) (the cells to be tested were purchased from the Cancer Hospital of Chinese Academy of Medical Sciences).
(§2) The cells in logarithmic growth phase were treated to prepare a single cell suspension, with the cell density adjusted, which was seeded in a 96-well cell culture plate. About 2×10^3 cells were contained in 100 μL per well, and cultured in a cell incubator at 37° C., 5% CO2, and saturated humidity for 24 h. The used medium was aspirated and abandoned, and then 100 μL of the target compound in different concentrations (0.1 μM-100 μM) were added for drug treatment. Five duplicate wells were prepared for each concentration. The background blank well, negative control well and positive control well were also prepared. All the wells were placed in a cell culture incubator at 37° C., 5% CO2, saturated humidity for another 72 h. Then, each well was added with 10 μL of MTT solution (5 mg/mL) and incubated for another 4 h. After that, each well was added with 100 μL of 10% SDS-0.1% NH4Cl (10% SDS purchased from Beijing Mengyimei Biotechnology Co., Ltd.) solution, and incubated at 37° C. for 10 h in the dark. Then, the absorbance OD was measured at 570 nm using a microplate reader at a reference wavelength of 650 nm. Cell proliferation inhibition was calculated according to the following formula: % inhibition=(ODcontrol−ODtreat)(ODcontrol−ODblank)×100. […] Each group was performed at least three times in parallel.

[2] = system: human breast cancer cell line (MCF-7); assay: MTT assay, tumor cell proliferation inhibition, MCF-7; assay type: cell-based; details: MCF-7, MTT, 72 h, read-out: Tumor inhibition rate (IC50)
Method: as §1, §2

[3] = system: human hepatoma cell line (HepG2); assay: MTT assay, tumor cell proliferation inhibition, HepG2; assay type: cell-based; details: 72 h, read-out: Tumor inhibition rate (IC50)
Method: as §1, §2

[4] = system: human lung cancer cell line (A549); assay: MTT assay, tumor cell proliferation inhibition, A549; assay type: cell-based; details: A549, MTT, 72 h, read-out: Tumor inhibition rate (IC50)
Method: as §1, §2

[5] = system: human prostate cancer cell line (DU145); assay: MTT assay, tumor cell proliferation inhibition, DU145; assay type: cell-based; details: for IC50: DU145, MTT, 72 h, read-out: Tumor inhibition rate (IC50)
Method: as §1, §2

[6] = system: DU145 cancer cells; assay: Nude mice bearing DU145 cancer cells; assay type: in vivo; details: for tumor growth: FIG. 3
Method: (§3) In the present invention, the antitumor activity was evaluated by intraperitoneal injection to nude mice bearing different tumors, for compounds 3 (N-(4-((4-nitrophenyl)methoxy)phenyl)-6,7-(benzo-9-crown-3)-4-quinazolinamine) and 23 (compounds No. are shown in Table 1) (N-(3-((4-trifluoromethylphenyl)methoxy)phenyl)-6,7-(benzo-12-crown-4)-4-quinazolinamine) of formula (I).
Firstly, a tumor-bearing nude mouse model was established. 0.2-1 mL of cell suspension was inoculated subcutaneously into the left lower limb of nude mice, and the drug was administered when the tumor volume reached about 100 mm^3. Then, grouping and administration were performed; the nude mice (5 mice in each group) were randomly divided into several groups, such as ultra-pure water control group (blank), positive drug control group, and different dosage treatment groups. […] The nude mice were weighted every other day during the administration. Tumor volumes were measured and calculated. Then tumor growth curve, tumor inhibition curve (see FIGS. 1 and 3) and weight change curve (see FIGS. 2 and 4) were drawn. […]. Among those, docetaxel suffers from high cumulative neurotoxic toxicity and drug resistance although it has the best effect. Comparing to docetaxel, compound 23 has a much lower toxicity and drug resistance, and thus has a great development prospect. […]

[7] = system: tumor cell strains HepG2, A549, MCF-7, DU145 and SH-SY5Y; assay: MTT assay, summary over the five tumor cell lines; assay type: cell-based, human; details: HepG2, A549, MCF-7, DU145, SH-SY5Y
Method: as §1
The cells in logarithmic growth phase were treated to prepare a single cell suspension, with the cell density adjusted, which was seeded in a 96-well cell culture plate. About 2×10^3 cells were contained in 100 μL per well, and cultured in a cell incubator at 37° C., 5% CO2, and saturated humidity for 24 h. The used medium was aspirated and abandoned, and then 100 μL of the target compound in different concentrations (0.1 μM-100 μM) were added for drug treatment. Five duplicate wells were prepared for each concentration. The background blank well, negative control well and positive control well were also prepared. All the wells were placed in a cell culture incubator at 37° C., 5% CO2, saturated humidity for another 72 h. Then, each well was added with 10 μL of MTT solution (5 mg/mL) and incubated for another 4 h. After that, each well was added with 100 μL of 10% SDS-0.1% NH4Cl (10% SDS purchased from Beijing Mengyimei Biotechnology Co., Ltd.) solution, and incubated at 37° C. for 10 h in the dark. Then, the absorbance OD was measured at 570 nm using a microplate reader at a reference wavelength of 650 nm. Cell proliferation inhibition was calculated according to the following formula: % inhibition=(ODcontrol−ODtreat)(ODcontrol−ODblank)×100. IC50 value, i.e., 50% proliferation inhibition concentration, was calculated by SPSS 16.0 software. Each group was performed at least three times in parallel.
The inhibitory activities of 35 target compounds against tumor cell strains HepG2, A549, MCF-7, DU145 and SH-SY5Y were tested by MTT assay (Table 1). Some compounds with optimal antitumor activity were selected.

[8] = system: A549 cancer cells; assay: Nude mice bearing A549 cancer cells; assay type: in vivo; details: mouse, in vivo
Method: as §3
Firstly, a tumor-bearing nude mouse model was established. 0.2-1 mL of cell suspension was inoculated subcutaneously into the left lower limb of nude mice, and the drug was administered when the tumor volume reached about 100 mm^3. Then, grouping and administration were performed; the nude mice (5 mice in each group) were randomly divided into several groups, such as ultra-pure water control group (blank), positive drug control group, and different dosage treatment groups. The nude mice in each group were administered continuously for 40 days. The nude mice were weighted every other day during the administration. Tumor volumes were measured and calculated. Then tumor growth curve, tumor inhibition curve (see FIGS. 1 and 3) and weight change curve (see FIGS. 2 and 4) were drawn. […]. Among those, docetaxel suffers from high cumulative neurotoxic toxicity and drug resistance although it has the best effect. Comparing to docetaxel, compound 23 has a much lower toxicity and drug resistance, and thus has a great development prospect. […]

[9] = system: HepG2 cancer cells; assay: Nude mice bearing HepG2 cancer cells; details: for weight loss of nude mice (FIG. 6): 40 mg/Kg, single agent; for tumor growth (tumor volume, FIG. 5): nude mice bearing HepG2, single agent
Method: Firstly, a tumor-bearing nude mouse model was established. […] Then, grouping and administration were performed; the nude mice (5 mice in each group) were randomly divided into several groups, such as ultra-pure water control group (blank), positive drug control group, and different dosage treatment groups. The nude mice in each group were administered continuously for 40 days. The nude mice were weighted every other day during the administration. Tumor volumes were measured and calculated.

Compound	IC50 ([1]; Homo sapiens) [µM]	IC50 ([2]; Homo sapiens, MCF7) [µM]	IC50 ([3]; Homo sapiens) [µM]	IC50 ([4]; Homo sapiens) [µM]	IC50 ([5]; Homo sapiens, DU-145) [µM]	IC50 [1] [µM]	IC50 [2] [µM]	IC50 [3] [µM]	IC50 [4] [µM]	IC50 [5] [µM]	other results
O=[N+]([O-])c1ccc(COc2ccccc2Nc2ncnc3cc4c(cc23)OCCOCCO4)cc1 [Compound 1, N-(2-((4-nitrophenyl)methoxy)phenyl)-6,7-(benzo-9-crown-3)-4-quinazolinamine]	> 100	> 100	50.2	28.4	85.6						melting point: 192 to 193 °C
FC(F)(F)c1ccc(COc2cccc(Nc3ncnc4cc5c(cc34)OCCOCCOCCO5)c2)cc1 [Compound 23, N-(3-((4-trifluoromethylphenyl)methoxy)phenyl)-6,7-(benzo-12-crown-4)-4-quinazolinamine]	20	17.6	34	24.9	2.76						tumor growth ([6]; 80 mg/Kg): no longer grown almost; body weight compared with blank control ([6]; 80 mg/Kg, after treating for 50 days): even heavier than that of the blank control group; tumor growth ([6]; 160 mg/Kg): no longer grown almost; also recorded: completely inhibited; toxicity ([6]; 160 mg/kg, FIG. 4): no significant toxicity was observed; toxicity / body weight of nude mice (FIG. 4) ([6]; nude mice bearing DU145): very low; antitumor effect (tumor volume, FIG. 3) ([6]; nude mice bearing DU145, intraperitoneal injection, three doses): significant antitumor effect; also recorded: high inhibitory effect; inhibitory effect on DU145 (in words) ([5]; MTT, summary of Table 1): strong specific inhibitory effect
c1ccc(COc2ccc(Nc3ncnc4cc5c(cc34)OCCOCCOCCOCCO5)cc2)cc1 [Compound 29, N-(4-((phenyl)methoxy)phenyl)-6,7-(benzo-15-crown-5)-4-quinazolinamine]						5.25	12	11.9	29.5	8.8	inhibitory effect on proliferation of the five tumor cells (in words) [7]: good inhibitory effect on proliferation of at least three of the five tumor cells
O=[N+]([O-])c1ccc(COc2ccccc2Nc2ncnc3cc4c(cc23)OCCOCCOCCOCCO4)cc1 [Compound 30, N-(2-((4-nitrophenyl)methoxy)phenyl)-6,7-(benzo-15-crown-5)-4-quinazolinamine]						> 100	> 100	48.1	> 100	> 100	
O=[N+]([O-])c1ccc(COc2cccc(Nc3ncnc4cc5c(cc34)OCCOCCOCCOCCO5)c2)cc1 [Compound 31, N-(3-((4-nitrophenyl)methoxy)phenyl)-6,7-(benzo-15-crown-5)-4-quinazolinamine]	8.42	6.41	9.82	19.8	13.8						melting point: 136 to 137 °C; inhibitory effect on proliferation of the five tumor cells (in words) [7]: good inhibitory effect on proliferation of at least three of the five tumor cells
O=[N+]([O-])c1ccc(COc2ccc(Nc3ncnc4cc5c(cc34)OCCOCCOCCOCCO5)cc2)cc1 [Compound 32, N-(4-((4-nitrophenyl)methoxy)phenyl)-6,7-(benzo-15-crown-5)-4-quinazolinamine]						> 100	> 100	> 100	> 100	> 100	
FC(F)(F)c1ccc(COc2ccccc2Nc2ncnc3cc4c(cc23)OCCOCCOCCOCCO4)cc1 [Compound 33, N-(2-((4-trifluoromethylphenyl)methoxy)phenyl)-6,7-(benzo-15-crown-5)-4-quinazolinamine]						> 100	28.5	> 100	30.7	> 100	
FC(F)(F)c1ccc(COc2cccc(Nc3ncnc4cc5c(cc34)OCCOCCOCCOCCO5)c2)cc1 [Compound 34, N-(3-((4-trifluoromethylphenyl)methoxy)phenyl)-6,7-(benzo-15-crown-5)-4-quinazolinamine]						8.56	8.48	5.7	8.52	26.9	inhibitory effect on proliferation of the five tumor cells (in words) [7]: good inhibitory effect on proliferation of at least three of the five tumor cells
N#Cc1cc(Nc2ncnc3cc4c(cc23)OCCOCCO4)ccc1OCc1cccc(F)c1 [Compound 36, 2-(3-Fluoro-benzyloxy)-5-(7,8,10,11-tetrahydro-6,9,12-trioxa-1,3-diaza-cyclonona[b]naphthalen-4-ylamino)-benzonitrile]	> 100	> 100	> 100	3.52	0.31						melting point: 220 to 222 °C
COc1cc2ncnc(Nc3ccc(F)c(Cl)c3)c2cc1OCCCN1CCOCC1 [Gefitinib, reference compound]											toxicity / body weight of nude mice (FIG. 2) [8]: increased
CNC(=O)c1cc(Oc2ccc(NC(=O)Nc3ccc(Cl)c(C(F)(F)F)c3)c(F)c2)ccn1 [regorafenib]											weight loss of nude mice (FIG. 6) [9]: weight loss of nude mice is similar; tumor growth (tumor volume, FIG. 5) [9]: can slow down the tumor growth with increasing drug dose
CNC(=O)c1cc(Oc2ccc(NC(=O)Nc3ccc(Cl)c(C(F)(F)F)c3)cc2)ccn1 [sorafenib]											weight loss of nude mice (FIG. 6) [9]: weight loss of nude mice is relatively slow; tumor growth (tumor volume, FIG. 5) [9]: can slow down the tumor growth with increasing drug dose
